Results from patent US20110015068A1, “Herbicidal Compositions Comprising Pyroxasulfone V” (BASF SE, priority 2008, published 2011).
Where two headings read alike, the source gives them in different places.

How the values were obtained:
Type in all cases: in vivo
[1] = system: Bromus inermis; experiment: pre-emergence greenhouse test, BROIN; conditions: Bromus inermis, 25 g ai/ha, read-out: observed % activity
From the text: (§1) For the pre-emergence treatment, directly after sowing the active compounds, which had been suspended or emulsified in water, were applied by means of finely distributed nozzles. The containers were irrigated gently to promote germination and growth and subsequently covered with transparent plastic hoods until plant had rooted. This cover caused uniform germination of the tests plants, unless this was adversely affected by active compounds.
(§2) The respective herbicides A and/or safener were formulated as 10% by weight strength suspension concentrate and introduced to the spray liquor with the amount of solvent system used for applying the active compound. Herbicide B and/or safener were used as commercially available formulations and introduced to the spray liquor with the amount of solvent system used for applying the active compound. In the examples, the solvent used was water.
(§3) The test period extended over 21 days. During this time, the plants were tended, and their response to the treatments with active compound was evaluated.
(§4) The evaluation for the damage caused by the chemical compositions was carried out using a scale from 0 to 100%, compared to the untreated control plants. Here, 0 means no damage and 100 means complete destruction of the plants.

[2] = system: Sorghum halepense; experiment: pre-emergence greenhouse test, SORHA; conditions: Sorghum halepense, 25 g ai/ha, read-out: observed % activity
From the text: as §1, §2, §3, §4

[3] = system: Ipomoea purpurea; experiment: pre-emergence greenhouse test, PHBPU; conditions: Ipomoea purpurea, read-out: observed % activity; for inhibition at 25 g/ha: 25 g ai/ha; for inhibition at 50 g/ha: 50 g ai/ha
From the text: as §1, §2, §3, §4

[4] = system: Ambrosia artemisifolia; experiment: pre-emergence greenhouse test, AMBEL; conditions: Ambrosia, read-out: observed % activity; for inhibition at 25 g/ha: 25 g ai/ha; for inhibition at 50 g/ha: 50 g ai/ha
From the text: as §1, §2, §3, §4

[5] = system: Matricaria inermis; experiment: pre-emergence greenhouse test, MATIN; conditions: Matricaria, read-out: observed % activity; for inhibition at 25 g/ha: 25 g ai/ha; for inhibition at 50 g/ha: 50 g ai/ha
From the text: as §1, §2, §3, §4

[6] = system: Galium aparine; experiment: pre-emergence greenhouse test, GALAP; conditions: Galium aparine, read-out: observed % activity; for inhibition at 25 g/ha: 25 g ai/ha; for inhibition at 50 g/ha: 50 g ai/ha
From the text: as §1, §2, §3, §4

[7] = system: Kochia scoparia; experiment: pre-emergence greenhouse test, KCHSC; conditions: Bassia scoparia, 25 g ai/ha, read-out: observed % activity
From the text: as §1, §2, §3, §4

[8] = system: Echinochloa crus-galli; experiment: post-emergence greenhouse test, ECHCG; conditions: for inhibition at 13 g/ha: Echinochloa crus-galli, 13 g ai/ha, read-out: observed % activity
From the text: (§5) For the post-emergence treatment, the test plants were first grown to a height of 3 to 20 cm, depending on the plant habit, and only then treated. Here, the herbicidal compositions were suspended or emulsified in water as distribution medium and sprayed using finely distributing nozzles.
as §2, §3, §4

[9] = system: Setaria lutescens; experiment: post-emergence greenhouse test, SETLU; conditions: Setaria pumila, 13 g ai/ha, read-out: observed % activity
From the text: as §5, §2, §3, §4

[10] = system: Alopecurus myosuroides; experiment: post-emergence greenhouse test, ALOMY; conditions: for observed activity in % destruction: Table 3; for inhibition at 13 g/ha / inhibition at 100 g/ha: Alopecurus myosuroides, read-out: observed % activity; for inhibition at 13 g/ha: 13 g ai/ha
From the text: as §5, §2, §3, §4

[11] = system: Setaria italica; experiment: post-emergence greenhouse test, SETIT; conditions: Setaria italica, read-out: observed % activity; for inhibition at 50 g/ha: 50 g ai/ha; for inhibition at 100 g/ha: 100 g ai/ha
From the text: as §5, §2, §3, §4

[12] = system: Chenopodium album; experiment: post-emergence greenhouse test, CHEAL; conditions: for inhibition at 13 g/ha / inhibition at 50 g/ha: Chenopodium album, read-out: observed % activity; for inhibition at 13 g/ha: 13 g ai/ha; for inhibition at 50 g/ha: 50 g ai/ha
From the text: as §5, §2, §3, §4

[13] = system: Polygonum convolvulus; experiment: post-emergence greenhouse test, POLCO; conditions: for inhibition at 25 g/ha / inhibition at 50 g/ha / inhibition at 100 g/ha: Fallopia convolvulus, read-out: observed % activity; for inhibition at 25 g/ha: 25 g ai/ha; for inhibition at 50 g/ha: 50 g ai/ha; for inhibition at 100 g/ha: 100 g ai/ha
From the text: as §5, §2, §3, §4

[14] = system: Solanum nigrum; experiment: post-emergence greenhouse test, SOLNI; conditions: Solanum nigrum, read-out: observed % activity; for inhibition at 13 g/ha: 13 g ai/ha; for inhibition at 100 g/ha: 100 g ai/ha
From the text: as §5, §2, §3, §4

[15] = system: Galium aparine; experiment: post-emergence greenhouse test, GALAP; conditions: for inhibition at 25 g/ha / inhibition at 100 g/ha: Galium aparine, read-out: observed % activity; for inhibition at 25 g/ha: 25 g ai/ha; for inhibition at 100 g/ha: 100 g ai/ha
From the text: as §5, §2, §3, §4

[16] = system: Kochia scoparia; experiment: post-emergence greenhouse test, KCHSC; conditions: Bassia scoparia, read-out: observed % activity; for inhibition at 13 g/ha: 13 g ai/ha; for inhibition at 100 g/ha: 100 g ai/ha
From the text: as §5, §2, §3, §4

[17] = system: Digitaria sanguinalis; experiment: post-emergence greenhouse test, DIGSA; conditions: 20 DAT
From the text: as §5, §2, §3, §4

[18] = system: Lolium multiflorum; experiment: post-emergence greenhouse test, LOLMU; conditions: 20 DAT
From the text: as §5, §2, §3, §4

[19] = system: Setaria faberii; experiment: post-emergence greenhouse test, SETFA; conditions: 50 g ai/ha, 20 DAT
From the text: as §5, §2, §3, §4

[20] = system: Setaria viridis; experiment: post-emergence greenhouse test, SETVI; conditions: 25 g ai/ha, 20 DAT, Table 3
From the text: as §5, §2, §3, §4

[21] = system: Matricaria inermis; experiment: post-emergence greenhouse test, MATIN; conditions: 20 DAT
From the text: as §5, §2, §3, §4

`Cn1nc(C(F)(F)F)c(CS(=O)(=O)C2=NOC(C)(C)C2)c1OC(F)F` [pyroxasulfone, 3-[5-(difluoromethoxy)-1-methyl-3-(trifluoromethyl)pyrazol-4-ylmethylsulfonyl]-4,5-dihydro-5,5-dimethyl-1,2-oxazole] was tested, and the inhibition at 25 g/ha ([1]; 192 h, 8 DAT) was 60%, the inhibition at 25 g/ha ([1]; 480 h, 20 DAT) was 75% and the inhibition at 25 g/ha ([2]; 192 h, 8 DAT) was 75%. The inhibition at 25 g/ha ([2]; 480 h, 20 DAT) was 95%, the inhibition at 25 g/ha ([3]; 192 h, 8 DAT) was 40% and the inhibition at 50 g/ha ([3]; 192 h, 8 DAT) was 65%. The inhibition at 25 g/ha ([3]; 480 h, 20 DAT) was 50%, the inhibition at 50 g/ha ([3]; 480 h, 20 DAT) was 90% and the inhibition at 25 g/ha ([4]; 192 h, 8 DAT) was 40%. For the same compound, the inhibition at 50 g/ha ([4]; 192 h, 8 DAT) was 50%, the inhibition at 25 g/ha ([4]; 480 h, 20 DAT) was 65% and the inhibition at 50 g/ha ([4]; 480 h, 20 DAT) was 80%. It also gave an inhibition at 25 g/ha ([5]; 192 h, 8 DAT) of 0%, an inhibition at 50 g/ha ([5]; 192 h, 8 DAT) of 20% and an inhibition at 25 g/ha ([5]; 480 h, 20 DAT) of 60%. The inhibition at 50 g/ha ([5]; 480 h, 20 DAT) was 85%, the inhibition at 25 g/ha ([6]; 192 h, 8 DAT) was 50% and the inhibition at 50 g/ha ([6]; 192 h, 8 DAT) was 70%. For the same compound, the inhibition at 25 g/ha ([6]; 480 h, 20 DAT) was 80%, the inhibition at 50 g/ha ([6]; 480 h, 20 DAT) was 90% and the inhibition at 25 g/ha ([7]; 192 h, 8 DAT) was 40%. For the same compound, the inhibition at 25 g/ha ([7]; 480 h, 20 DAT) was 98%, the “observed activity in % destruction” value ([8]; 50 g ai/ha, 20 DAT, Table 3) was 80% and the inhibition at 13 g/ha ([8]; 192 h, 8 DAT) was 25%. It also gave an inhibition at 13 g/ha ([8]; 480 h, 20 DAT) of 80%, an inhibition at 13 g/ha ([9]; 192 h, 8 DAT) of 0% and an inhibition at 13 g/ha ([9]; 480 h, 20 DAT) of 65%. The “observed activity in % destruction” value ([10]; 50 g ai/ha, 20 DAT) was 55%, the “observed activity in % destruction” value ([10]; 100 g ai/ha, 20 DAT) was 80% and the inhibition at 13 g/ha ([10]; 192 h, 8 DAT) was 0%. It also gave an inhibition at 100 g/ha ([10]; 192 h, 100 g ai/ha, 8 DAT) of 40%, an inhibition at 13 g/ha ([10]; 480 h, 20 DAT) of 15% and an inhibition at 100 g/ha ([10]; 480 h, 100 g ai/ha, 20 DAT) of 75%. It also gave an inhibition at 50 g/ha ([11]; 192 h, 8 DAT) of 25%, an inhibition at 100 g/ha ([11]; 192 h, 8 DAT) of 45% and an inhibition at 50 g/ha ([11]; 480 h, 20 DAT) of 75%. For the same compound, the inhibition at 100 g/ha ([11]; 480 h, 20 DAT) was 80%, the “observed activity in % destruction” value ([12]; 12.5 g ai/ha, 20 DAT, Table 3) was 35% and the “observed activity in % destruction” value ([12]; 25 g ai/ha, 20 DAT, Table 4) was 45%. It also gave an inhibition at 13 g/ha ([12]; 192 h, 8 DAT) of 35%, an inhibition at 50 g/ha ([12]; 192 h, 8 DAT) of 60% and an inhibition at 13 g/ha ([12]; 480 h, 20 DAT) of 25%. The inhibition at 50 g/ha ([12]; 480 h, 20 DAT) was 65%, the “observed activity in % destruction” value ([13]; 12.5 g ai/ha, 20 DAT, Table 3) was 35% and the inhibition at 25 g/ha ([13]; 192 h, 8 DAT) was 30%. For the same compound, the inhibition at 50 g/ha ([13]; 192 h, 8 DAT) was 50%, the inhibition at 100 g/ha ([13]; 192 h, 8 DAT) was 50% and the inhibition at 25 g/ha ([13]; 480 h, 20 DAT) was 50%. The inhibition at 50 g/ha ([13]; 480 h, 20 DAT) was 50%, the inhibition at 100 g/ha ([13]; 480 h, 20 DAT) was 55% and the inhibition at 13 g/ha ([14]; 192 h, 8 DAT) was 75%. It also gave an inhibition at 100 g/ha ([14]; 192 h, 8 DAT) of 75%, an inhibition at 13 g/ha ([14]; 480 h, 20 DAT) of 75% and an inhibition at 100 g/ha ([14]; 480 h, 20 DAT) of 90%. For the same compound, the “observed activity in % destruction” value ([15]; 12.5 g ai/ha, 20 DAT, Table 4) was 40%, the inhibition at 25 g/ha ([15]; 192 h, 8 DAT) was 60% and the inhibition at 100 g/ha ([15]; 192 h, 8 DAT) was 70%. For the same compound, the inhibition at 25 g/ha ([15]; 480 h, 20 DAT) was 85%, the inhibition at 100 g/ha ([15]; 480 h, 20 DAT) was 90% and the inhibition at 13 g/ha ([16]; 192 h, 8 DAT) was 60%. The inhibition at 100 g/ha ([16]; 192 h, 8 DAT) was 60%, the inhibition at 13 g/ha ([16]; 480 h, 20 DAT) was 50% and the inhibition at 100 g/ha ([16]; 480 h, 20 DAT) was 70%. The “observed activity in % destruction” value ([17]; 12.5 g ai/ha, Table 4) was 50%, the “observed activity in % destruction” value ([17]; 50 g ai/ha, Table 3) was 80% and the “observed activity in % destruction” value ([18]; 12.5 g ai/ha, Table 3) was 55%. The “observed activity in % destruction” value ([18]; 25 g ai/ha, Table 3) was 55%, the “observed activity in % destruction” value ([18]; 50 g ai/ha, Table 4) was 55% and the “observed activity in % destruction” value ([19]; Table 3) was 85%. For the same compound, the “observed activity in % destruction” value ([19]; Table 4) was 85%, the “observed activity in % destruction” value [20] was 75% and the “observed activity in % destruction” value ([21]; 12.5 g ai/ha, Table 3) was 0%. The “observed activity in % destruction” value ([21]; 25 g ai/ha, Table 3) was 0% and the “observed activity in % destruction” value ([21]; 25 g ai/ha, Table 4) was 0%.
